Measurements as given in patent US20070270418A1, “Inhibitors of P38 and Methods of Using the Same” (priority 2003, published 2007).

Biological target: T1, p38β (Homo sapiens, UniProt Q15759)
T1 construct: p38 MAP Kinases are recombinant human full-length proteins with an amino-terminal GST fusion; GST (N); purchased Upstate (Charlottesville, Va.); host or cells: E. coli
Experiment: Kinase selectivity, ATF2 phosphorylation ELISA
Assay type: biochemical
Conditions: not given
Protocol: All kinases and the substrate ATF2 are acquired from Upstate (Charlottesville, Va.). p38 MAP Kinases are recombinant human full-length proteins with an amino-terminal GST fusion, expressed in and purified from E. coli. ATF2 is a GST fusion protein containing amino acids 19-96 of human ATF2 expressed in E. coli. All proteins were aliquoted and stored at −80° C.
p38 MAP Kinase assays are performed using an assay buffer containing 25 mM HEPES, pH 7.5, 10 mM MgCl2, 2 mM DTT, 20 mM β-glycerophosphate, 0.1 mM Na3VO4, 40 μM ATP and 1.25 μM of ATF2, together with 6 ng of p38α protein, 12 ng p38β protein, 1.5 ng p38γ, or 0.4 ng JNK2α2. Compounds are serially diluted in DMSO and 2 μL of test compound at 25× final concentration is used. The vehicle control receives DMSO only. Test compounds are pre-incubated with 20 μl of enzyme in kinase buffer (25 mM HEPES, pH 7.5, 10 mM MgCl2, 2 mM DTT, 20 mM 3-glycerophosphate and 0.1 mM Na3VO4) at room temperature for 15 minutes. […] The reactions are incubated for 30 minutes at 37° C. and terminated by the addition of 18 μl of 200 mM EDTA. An ELISA method is used to measure the phosphorylation of ATF2 at Thr 69. High binding 96-well plates (Corning 3369) are coated with 50 μl of kinase reaction for 1 hour at 37° C. The coated plates are washed with 200 μl washing buffer (25 mM Tris HCl, pH 8.3, 192 mM glycine, 0.1% SDS and 0.05% Tween-20) three times. The plates are then washed three times with SuperBlock in TBS (Pierce, 37535). After blocking, plates are incubated with 50 μl of rabbit anti-phospho-ATF2 antibody (Cell Signaling, 9221 L, 1:500) for 30 minutes at 37° C. Plates are washed three times with washing buffer prior to incubation with 50 μl HRP-conjugated goat anti-rabbit antibody (Cell Signaling, 7074, 1:500) for 30 minutes at 37° C. Plates are then washed three times with washing buffer before incubation with 50 μl of Ultra TMB-ELISA (Pierce, 34028) for 8 minutes at room temperature. Finally, 50 μl of phosphoric acid (1 M) is added to stop reactions and plate absorbance is read at 450 nm on a SpectraMax 250 plate reader.
A selectivity panel is used to test the cross-reactivity of compounds of the invention with the β and γ isoforms of p38 MAP kinase, Src^p60 and JNK2α2. The p38β, p38γ, and JNK2α2 assays are described in Example 4. The Src^p60 assay measures the ability of compounds to inhibit Src^p60-catalyzed phosphorylation of a peptide substrate.

T1 sequence (Q15759 whole entry, the tested form may be a part): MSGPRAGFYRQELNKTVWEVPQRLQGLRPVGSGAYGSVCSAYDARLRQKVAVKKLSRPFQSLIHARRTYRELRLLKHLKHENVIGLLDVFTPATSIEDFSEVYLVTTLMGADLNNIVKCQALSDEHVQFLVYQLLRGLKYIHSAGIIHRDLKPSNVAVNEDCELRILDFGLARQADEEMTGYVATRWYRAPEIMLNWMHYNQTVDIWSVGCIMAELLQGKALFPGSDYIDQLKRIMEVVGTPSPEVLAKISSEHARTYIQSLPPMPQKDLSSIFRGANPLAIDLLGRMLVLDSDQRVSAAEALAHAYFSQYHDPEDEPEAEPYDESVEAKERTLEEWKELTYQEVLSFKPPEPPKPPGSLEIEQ

| Structure (SMILES) | IC50 | selectivity over p38β as compared to p38α |
| --- | --- | --- |
| CN(C)CC(C)(C)CNc1nccc(-c2c(-c3ccc(F)cc3)nc3occn23)n1 [CXIX] | 288 nM |  |
| Fc1ccc(-c2nc3occn3c2-c2ccnc(N[C@@H]3CN4CCC3CC4)n2)cc1 [LXXI] | 114 nM |  |
| Fc1ccc(-c2nc3occn3c2-c2ccnc(NC3CN4CCC3CC4)n2)cc1 (stereo not shown) [LXXXIV] | 1290 nM |  |
| Fc1ccc(-c2nc3occn3c2-c2ccnc(N[C@H]3CN4CCC3CC4)n2)cc1 [LXXXVII] | 150 nM | 17 fold |

System: collagen-induced arthritis in rats
Experiment: In vivo established type II collagen arthritis study
Parameters: species or system Female Lewis rats
Conditions: Rattus norvegicus, po, oral gavage bid, days 1-7 of arthritis, first column so headed (c3), read-out: ED50 summed ankle histology
Protocol: Compounds are tested in the collagen-induced model of arthritis in rats. Female Lewis rats (0.16-0.2 kg) are injected subcutaneously at the base of the tail and two sites on the back on day 0 and 6 with 300 μl of Freund's Incomplete Adjuvant containing 2 mg/ml of Bovine Type II Collagen. On day 9 of the study, caliper measurements of both hind leg ankle joints are performed. This measurement is considered the normal, pre-disease measurement. When ankle swelling is clearly established in at least one hind paw (caliper measurement increase from 0.263 to 0.282 inches), rats are enrolled into the treatment phase of the study. This occurs on day 10 or 11 of the study and is considered to be day 1 of arthritis. Enrolled animals are randomized and administered vehicle control or compound (1, 3.3, 10, or 30 mg/kg, bid), unless otherwise indicated, or dexamethasone (0.0375 mg/kg, bid) via oral gavage on days 1-7 of arthritis (treatment days). Ankle diameters are measured on each day of treatment. Mean increases in ankle diameter for 7 lead compounds are shown below in FIGS. 3-9.
Following sacrifice on day 7, both hind paws are removed from each animal and weighed. Knees and ankles from all animals in all groups are preserved, decalcified in 5% formic acid and trimmed into two approximately equal longitudinal (ankles) or frontal (knees) halves, dehydrated, cleared, infiltrated, and embedded in paraffin. Blocks are sectioned and stained with Toluidine Blue.
Tissues are examined microscopically and scored for knee and ankle inflammation (cellular infiltration), pannus formation and infiltration, cartilage damage (loss of Toluidine staining and collagen disruption) and bone resorption. Scoring is on a scale from 0-5, where a score of 0 is normal and a score of 5 indicates severe damage or evidence of disease or both.

| Structure (SMILES) | ED50 |
| --- | --- |
| CN(C)CC(C)(C)CNc1nccc(-c2c(-c3ccc(F)cc3)nc3occn23)n1 [CXIX] | 2.64 mg/kg |
| Fc1ccc(-c2nc3occn3c2-c2ccnc(NC3CN4CCC3CC4)n2)cc1 (stereo not shown) [LXXXIV] | 2.6 mg/kg |
| Fc1ccc(-c2nc3occn3c2-c2ccnc(N[C@H]3CN4CCC3CC4)n2)cc1 [LXXXVII] | 2.07 mg/kg |

Same assay, conditions: Rattus norvegicus, po, oral gavage bid, days 1-7 of arthritis, read-out: ED50 ankle diameter

| Structure (SMILES) | ED50 |
| --- | --- |
| CN(C)CC(C)(C)CNc1nccc(-c2c(-c3ccc(F)cc3)nc3occn23)n1 [CXIX] | 2.3 mg/kg |
| Fc1ccc(-c2nc3occn3c2-c2ccnc(NC3CN4CCC3CC4)n2)cc1 (stereo not shown) [LXXXIV] | 1.9 mg/kg |
| Fc1ccc(-c2nc3occn3c2-c2ccnc(N[C@H]3CN4CCC3CC4)n2)cc1 [LXXXVII] | 1.29 mg/kg |

Same assay, conditions: Rattus norvegicus, po, oral gavage bid, days 1-7 of arthritis, read-out: ED50 paw weights

| Structure (SMILES) | ED50 |
| --- | --- |
| CN(C)CC(C)(C)CNc1nccc(-c2c(-c3ccc(F)cc3)nc3occn23)n1 [CXIX] | 3.75 mg/kg |
| Fc1ccc(-c2nc3occn3c2-c2ccnc(NC3CN4CCC3CC4)n2)cc1 (stereo not shown) [LXXXIV] | 2 mg/kg |
| Fc1ccc(-c2nc3occn3c2-c2ccnc(N[C@H]3CN4CCC3CC4)n2)cc1 [LXXXVII] | 1.88 mg/kg |

Same assay, conditions: Rattus norvegicus, po, oral gavage bid, days 1-7 of arthritis, second column so headed (c4), read-out: ED50 summed ankle histology

| Structure (SMILES) | ED50 |
| --- | --- |
| CN(C)CC(C)(C)CNc1nccc(-c2c(-c3ccc(F)cc3)nc3occn23)n1 [CXIX] | 1.19 mg/kg |
| Fc1ccc(-c2nc3occn3c2-c2ccnc(NC3CN4CCC3CC4)n2)cc1 (stereo not shown) [LXXXIV] | 0.6 mg/kg |
| Fc1ccc(-c2nc3occn3c2-c2ccnc(N[C@H]3CN4CCC3CC4)n2)cc1 [LXXXVII] | 0.42 mg/kg |

Biological target: T2, p38α (Homo sapiens, UniProt Q16539)
T2 construct: p38 MAP Kinases are recombinant human full-length proteins with an amino-terminal GST fusion; GST (N); purchased Upstate (Charlottesville, Va.); host or cells: E. coli
T2 sequence (Q16539 whole entry, the tested form may be a part): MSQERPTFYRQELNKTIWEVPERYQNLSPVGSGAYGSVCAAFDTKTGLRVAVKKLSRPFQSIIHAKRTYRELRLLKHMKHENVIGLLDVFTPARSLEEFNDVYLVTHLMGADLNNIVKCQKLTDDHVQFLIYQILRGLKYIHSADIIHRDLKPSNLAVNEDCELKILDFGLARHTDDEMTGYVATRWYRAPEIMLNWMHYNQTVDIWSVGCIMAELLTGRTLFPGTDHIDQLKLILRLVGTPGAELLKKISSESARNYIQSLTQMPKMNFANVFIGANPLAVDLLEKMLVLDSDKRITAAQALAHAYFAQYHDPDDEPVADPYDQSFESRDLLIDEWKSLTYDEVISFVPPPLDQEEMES
Experiment: p38 MAP Kinase assay, ATF2 phosphorylation (ELISA)
Assay type: biochemical
Conditions: 40 μM ATP
Outline: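 Recombinant full-length GST-tagged human p38α (6 ng) pre-incubated 15 min at room temperature with compound, then reacted 30 min at 37° C with 40 μM ATP and 1.25 μM GST-ATF2 (aa 19-96) in HEPES pH 7.5/MgCl2 buffer. EDTA stop; ATF2 Thr69 phosphorylation measured by anti-phospho-ATF2 ELISA at 450 nm.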

| Structure (SMILES) | IC50 |
| --- | --- |
| CN(C)CC(C)(C)CNc1nccc(-c2c(-c3ccc(F)cc3)nc3occn23)n1 [CXIX] | 17 nM |
| Fc1ccc(-c2nc3occn3c2-c2ccnc(N[C@@H]3CN4CCC3CC4)n2)cc1 [LXXI] | 27.7 nM |
| Fc1ccc(-c2nc3occn3c2-c2ccnc(NC3CN4CCC3CC4)n2)cc1 (stereo not shown) [LXXXIV] | 15 nM |
| Fc1ccc(-c2nc3occn3c2-c2ccnc(N[C@H]3CN4CCC3CC4)n2)cc1 [LXXXVII] | 8.7 nM |

Biological target: T3, InsR (Homo sapiens, UniProt P06213)
T3 construct: purchased Upstate (Charlottesville, Va.)
T3 sequence (P06213 28-1382, species assumed): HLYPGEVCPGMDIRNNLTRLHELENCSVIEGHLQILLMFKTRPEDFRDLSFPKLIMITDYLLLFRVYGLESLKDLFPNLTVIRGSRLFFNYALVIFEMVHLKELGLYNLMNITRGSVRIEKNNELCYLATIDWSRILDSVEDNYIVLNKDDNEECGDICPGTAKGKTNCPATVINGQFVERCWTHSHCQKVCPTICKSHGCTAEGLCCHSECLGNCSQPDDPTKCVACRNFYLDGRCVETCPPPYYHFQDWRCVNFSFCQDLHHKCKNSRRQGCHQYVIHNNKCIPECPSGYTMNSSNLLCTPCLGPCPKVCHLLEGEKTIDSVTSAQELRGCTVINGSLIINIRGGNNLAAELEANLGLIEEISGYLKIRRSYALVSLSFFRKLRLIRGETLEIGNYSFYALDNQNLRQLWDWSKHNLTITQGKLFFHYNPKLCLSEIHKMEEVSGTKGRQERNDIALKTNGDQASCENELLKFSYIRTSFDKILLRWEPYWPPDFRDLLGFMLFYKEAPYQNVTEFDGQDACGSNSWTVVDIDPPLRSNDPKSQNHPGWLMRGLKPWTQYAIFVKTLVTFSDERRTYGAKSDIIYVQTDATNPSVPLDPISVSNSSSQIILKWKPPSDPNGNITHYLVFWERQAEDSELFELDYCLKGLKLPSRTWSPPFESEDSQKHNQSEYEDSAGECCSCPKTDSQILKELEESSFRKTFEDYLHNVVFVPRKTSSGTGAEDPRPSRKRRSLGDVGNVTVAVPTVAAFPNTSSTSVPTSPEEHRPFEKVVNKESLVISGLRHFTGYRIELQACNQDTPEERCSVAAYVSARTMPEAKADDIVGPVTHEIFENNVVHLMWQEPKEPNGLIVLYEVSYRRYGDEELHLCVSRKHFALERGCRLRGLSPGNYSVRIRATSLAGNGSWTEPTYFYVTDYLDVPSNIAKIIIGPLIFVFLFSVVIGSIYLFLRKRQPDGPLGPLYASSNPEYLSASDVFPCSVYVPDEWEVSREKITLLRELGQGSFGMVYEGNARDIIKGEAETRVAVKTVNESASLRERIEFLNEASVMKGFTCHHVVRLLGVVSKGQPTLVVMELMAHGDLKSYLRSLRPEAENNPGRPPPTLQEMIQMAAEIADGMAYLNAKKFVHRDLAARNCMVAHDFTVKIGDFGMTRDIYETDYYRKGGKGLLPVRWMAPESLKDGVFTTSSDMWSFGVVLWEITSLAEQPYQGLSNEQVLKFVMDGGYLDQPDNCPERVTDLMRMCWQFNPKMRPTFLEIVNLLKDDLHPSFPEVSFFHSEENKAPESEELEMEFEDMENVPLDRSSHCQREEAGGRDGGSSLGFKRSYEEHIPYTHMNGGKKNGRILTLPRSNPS
Experiment: Broad selectivity panel, 32P incorporation
Assay type: biochemical
Conditions: 0.1 μM compound, 40 μM ATP; read-out: Percent inhibition InsR
Protocol: (§1) Various compounds of the present invention are screened against a panel of 24 additional kinases (Upstate, Charlottesville, Va.). Compounds are tested 0.1 μM and 1 μM in reactions containing 40 μM ATP. Incorporation of radiolabeled phosphate (^32P) into each kinase substrate is measured in the presence and absence of test compound.

| Structure (SMILES) | inhibition at 0.1 µM |
| --- | --- |
| CN(C)CC(C)(C)CNc1nccc(-c2c(-c3ccc(F)cc3)nc3occn23)n1 [CXIX] | 8% |
| Fc1ccc(-c2nc3occn3c2-c2ccnc(N[C@@H]3CN4CCC3CC4)n2)cc1 [LXXI] | -25% |
| Fc1ccc(-c2nc3occn3c2-c2ccnc(N[C@H]3CN4CCC3CC4)n2)cc1 [LXXXVII] | -8% |

Same assay, conditions: 1 μM compound, 40 μM ATP; read-out: Percent inhibition InsR

| Structure (SMILES) | inhibition at 1 µM |
| --- | --- |
| CN(C)CC(C)(C)CNc1nccc(-c2c(-c3ccc(F)cc3)nc3occn23)n1 [CXIX] | 3% |
| Fc1ccc(-c2nc3occn3c2-c2ccnc(N[C@@H]3CN4CCC3CC4)n2)cc1 [LXXI] | 12% |
| Fc1ccc(-c2nc3occn3c2-c2ccnc(N[C@H]3CN4CCC3CC4)n2)cc1 [LXXXVII] | 8% |

Biological target: T4, Syk (Homo sapiens, UniProt P43405)
T4 construct: purchased Upstate (Charlottesville, Va.)
Experiment: Broad selectivity panel, 32P incorporation
Assay type: biochemical
Conditions: 0.1 μM compound, 40 μM ATP; read-out: Percent inhibition Syk
Protocol: as §1

| Structure (SMILES) | inhibition at 0.1 µM |
| --- | --- |
| CN(C)CC(C)(C)CNc1nccc(-c2c(-c3ccc(F)cc3)nc3occn23)n1 [CXIX] | 35% |
| Fc1ccc(-c2nc3occn3c2-c2ccnc(N[C@@H]3CN4CCC3CC4)n2)cc1 [LXXI] | -5% |
| Fc1ccc(-c2nc3occn3c2-c2ccnc(N[C@H]3CN4CCC3CC4)n2)cc1 [LXXXVII] | 17% |

Same assay, conditions: 1 μM compound, 40 μM ATP; read-out: Percent inhibition Syk

| Structure (SMILES) | inhibition at 1 µM |
| --- | --- |
| CN(C)CC(C)(C)CNc1nccc(-c2c(-c3ccc(F)cc3)nc3occn23)n1 [CXIX] | 33% |
| Fc1ccc(-c2nc3occn3c2-c2ccnc(N[C@@H]3CN4CCC3CC4)n2)cc1 [LXXI] | 33% |
| Fc1ccc(-c2nc3occn3c2-c2ccnc(N[C@H]3CN4CCC3CC4)n2)cc1 [LXXXVII] | 23% |

Biological target: T5, Lck (Homo sapiens, UniProt P06239)
T5 construct: purchased Upstate (Charlottesville, Va.)
T5 sequence (P06239 whole entry, species assumed): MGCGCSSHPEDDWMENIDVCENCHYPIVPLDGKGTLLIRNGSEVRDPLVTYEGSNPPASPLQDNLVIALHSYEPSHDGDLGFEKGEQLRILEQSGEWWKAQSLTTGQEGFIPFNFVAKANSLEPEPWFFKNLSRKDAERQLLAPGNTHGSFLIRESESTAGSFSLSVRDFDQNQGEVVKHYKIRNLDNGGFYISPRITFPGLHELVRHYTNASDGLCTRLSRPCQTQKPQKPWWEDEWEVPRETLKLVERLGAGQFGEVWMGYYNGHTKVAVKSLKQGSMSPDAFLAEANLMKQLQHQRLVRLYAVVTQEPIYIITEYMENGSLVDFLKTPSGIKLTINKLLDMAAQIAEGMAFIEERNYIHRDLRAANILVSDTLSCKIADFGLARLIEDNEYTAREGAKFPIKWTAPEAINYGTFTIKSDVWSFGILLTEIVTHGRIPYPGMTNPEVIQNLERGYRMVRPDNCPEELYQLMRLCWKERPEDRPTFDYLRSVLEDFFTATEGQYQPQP
Experiment: Broad selectivity panel, 32P incorporation
Assay type: biochemical
Conditions: 0.1 μM compound, 40 μM ATP; read-out: Percent inhibition Lck
Protocol: as §1

| Structure (SMILES) | inhibition at 0.1 µM |
| --- | --- |
| Fc1ccc(-c2nc3occn3c2-c2ccnc(N[C@@H]3CN4CCC3CC4)n2)cc1 [LXXI] | 8% |
| Fc1ccc(-c2nc3occn3c2-c2ccnc(N[C@H]3CN4CCC3CC4)n2)cc1 [LXXXVII] | -15% |

Same assay, conditions: 1 μM compound, 40 μM ATP; read-out: Percent inhibition Lck

| Structure (SMILES) | inhibition at 1 µM |
| --- | --- |
| Fc1ccc(-c2nc3occn3c2-c2ccnc(N[C@@H]3CN4CCC3CC4)n2)cc1 [LXXI] | 17% |
| Fc1ccc(-c2nc3occn3c2-c2ccnc(N[C@H]3CN4CCC3CC4)n2)cc1 [LXXXVII] | 18% |
